Source: ChEMBL document CHEMBL1201862, “PubChem BioAssay data set” (2004)
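Five compound concentrations were applied to cells in 96-well plates for 48 hours; endpoints were derived by simple linear interpolation of the resulting dose-response curve. GI50 = concentration required for 50% inhibition of growth.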 The source made the active and inactive calls. No stated cut-off is given here; in the data, active = GI50 up to about 1.1 µM and inactive = higher.

Columns and labels:
Test in all cases: DTP human tumour cell line panel, 48 h
786-0 = test system: 786-0
A498 = test system: A498
A549 = test system: A549
ACHN = test system: ACHN
BT-549 = test system: BT-549
CAKI-1 = test system: CAKI-1
CCRF-CEM = test system: CCRF-CEM
COLO 205 = test system: COLO 205
DU-145 = test system: DU-145
EKVX = test system: EKVX
HCC 2998 = test system: HCC 2998
HCT-116 = test system: HCT-116
HCT-15 = test system: HCT-15
HL-60 = test system: HL-60
HOP-62 = test system: HOP-62
HOP-92 = test system: HOP-92
HT-29 = test system: HT-29
Hs-578T = test system: Hs-578T
IGROV-1 = test system: IGROV-1
K562 = test system: K562
KM12 = test system: KM12
LOX IMVI = test system: LOX IMVI
M14 = test system: M14
MCF7 = test system: MCF7
MDA-MB-231 = test system: MDA-MB-231
MDA-MB-435 = test system: MDA-MB-435
MDA-N = test system: MDA-N
MOLT-4 = test system: MOLT-4
Malme-3M = test system: Malme-3M
NCI-H226 = test system: NCI-H226
NCI-H23 = test system: NCI-H23
NCI-H460 = test system: NCI-H460
NCI-H522 = test system: NCI-H522
NCI/ADR-RES = test system: NCI/ADR-RES
OVCAR-3 = test system: OVCAR-3
OVCAR-5 = test system: OVCAR-5
OVCAR-8 = test system: OVCAR-8
PC-3 = test system: PC-3
RPMI-8226 = test system: RPMI-8226
RXF 393 = test system: RXF 393
SF-268 = test system: SF-268
SF-295 = test system: SF-295
SF-539 = test system: SF-539
SK-MEL-28 = test system: SK-MEL-28
SK-MEL-2 = test system: SK-MEL-2
SK-MEL-5 = test system: SK-MEL-5
SK-OV-3 = test system: SK-OV-3
SN12C = test system: SN12C
SNB-19 = test system: SNB-19
SNB-75 = test system: SNB-75
SR = test system: SR
SW-620 = test system: SW-620
T47D = test system: T47D
U-251 = test system: U-251
UACC-257 = test system: UACC-257
UACC-62 = test system: UACC-62
UO-31 = test system: UO-31

Compound: CN(C)c1ccc(/C=C(\NC(=O)c2ccccc2)C(=O)Nc2ccccc2C(=O)NN2C(=O)CSC2c2ccc(N(C)C)cc2)cc1 (configuration not stated)
- GI50 (786-0): 80.2 µM (inactive)
- GI50 (A498): > 100 µM (inactive)
- GI50 (A549): > 100 µM (inactive)
- GI50 (ACHN): > 100 µM (inactive)
- GI50 (BT-549): > 100 µM (inactive)
- GI50 (CAKI-1): > 100 µM (inactive)
- GI50 (CCRF-CEM): > 100 µM (inactive)
- GI50 (COLO 205): > 100 µM (inactive)
- GI50 (DU-145): > 100 µM (inactive)
- GI50 (EKVX): > 100 µM (inactive)
- GI50 (HCC 2998): 6.37 µM (inactive)
- GI50 (HCT-116): > 100 µM (inactive)
- GI50 (HCT-15): 92.7 µM
- GI50 (HL-60): > 100 µM (inactive)
- GI50 (HOP-62): 93.1 µM (inactive)
- GI50 (HOP-92): > 100 µM (inactive)
- GI50 (HT-29): > 100 µM (inactive)
- GI50 (Hs-578T): > 100 µM (inactive)
- GI50 (IGROV-1): > 100 µM (inactive)
- GI50 (K562): 33.3 µM (inactive)
- GI50 (KM12): > 100 µM (inactive)
- GI50 (LOX IMVI): > 100 µM (inactive)
- GI50 (M14): > 100 µM (inactive)
- GI50 (MCF7): > 100 µM (inactive)
- GI50 (MDA-MB-231): > 100 µM (inactive)
- GI50 (MDA-MB-435): 66.5 µM (inactive)
- GI50 (MDA-N): > 100 µM (inactive)
- GI50 (MOLT-4): > 100 µM (inactive)
- GI50 (Malme-3M): > 100 µM (inactive)
- GI50 (NCI-H226): > 100 µM (inactive)
- GI50 (NCI-H23): > 100 µM (inactive)
- GI50 (NCI-H460): 10.7 µM (inactive)
- GI50 (NCI-H522): 40.6 µM (inactive)
- GI50 (NCI/ADR-RES): > 100 µM (inactive)
- GI50 (OVCAR-3): > 100 µM (inactive)
- GI50 (OVCAR-5): > 100 µM (inactive)
- GI50 (OVCAR-8): > 100 µM (inactive)
- GI50 (PC-3): > 100 µM (inactive)
- GI50 (RPMI-8226): > 100 µM (inactive)
- GI50 (RXF 393): 86.3 µM (inactive)
- GI50 (SF-268): > 100 µM (inactive)
- GI50 (SF-295): > 100 µM (inactive)
- GI50 (SF-539): 79.8 µM (inactive)
- GI50 (SK-MEL-28): > 100 µM (inactive)
- GI50 (SK-MEL-2): > 100 µM (inactive)
- GI50 (SK-MEL-5): 94.6 µM (inactive)
- GI50 (SK-OV-3): > 100 µM (inactive)
- GI50 (SN12C): > 100 µM (inactive)
- GI50 (SNB-19): > 100 µM (inactive)
- GI50 (SNB-75): > 100 µM (inactive)
- GI50 (SR): > 100 µM (inactive)
- GI50 (SW-620): > 100 µM (inactive)
- GI50 (T47D): > 100 µM (inactive)
- GI50 (U-251): > 100 µM (inactive)
- GI50 (UACC-257): 16.1 µM (inactive)
- GI50 (UACC-62): > 100 µM (inactive)
- GI50 (UO-31): > 100 µM (inactive)
